Measurements as given in patent publication US20180000085A1, “USE OF PICOLINAMIDE COMPOUNDS WITH FUNGICIDAL ACTIVITY” (DOW AGROSCIENCES LLC, priority 2014, published 2018).

What was measured:
[1] = tested on: Zymoseptoria tritici; test: Leaf blotch of wheat (SEPTTR) disease control on wheat seedlings; format: in vivo; parameters: key to SEPTTR 1DP, HV activity at 100 ppm (% control rating) / SEPTTR 3DC, HV activity at 100 ppm (% control rating) / SEPTTR disease control, 1DP / SEPTTR disease control, 3DC / SEPTTR 1DP disease control rating, HV activity / SEPTTR 3DC disease control rating, HV activity / SEPTTR 3DC, LV activity at 125.1 g/H (% Control rating) / SEPTTR 1DP, LV activity at 125.1 g/H (% Control rating) / SEPTTR 1DP disease control rating, LV activity at 125.1 g/H / SEPTTR 3DC disease control rating, LV activity at 125.1 g/H / SEPTTR 3DC disease control rating, HV activity at 100 ppm / SEPTTR 1DP disease control rating, HV activity at 100 ppm / HV activity at 100 ppm SEPTTR 3DC (disease control rating) / HV activity at 100 ppm SEPTTR 1DP (disease control rating) / LV activity at 125.1 g/H SEPTTR 1DP (disease control rating) / LV activity at 125.1 g/H SEPTTR 3DC (disease control rating): A: > 80; B: ≤ 80; C: Not Tested; D: No Activity Observed in the Reported Assay; conditions: 100 ppm; for SEPTTR 1DP disease control rating, HV activity at 100 ppm / SEPTTR 3DC disease control rating, HV activity at 100 ppm: high volume application; for SEPTTR 1DP disease control rating, HV activity at 100 ppm: 1 day protectant; for SEPTTR 3DC disease control rating, HV activity at 100 ppm: 3 day curative; for HV activity at 100 ppm SEPTTR 1DP (disease control rating) / HV activity at 100 ppm SEPTTR 3DC (disease control rating): HV application, wheat leaf blotch; for HV activity at 100 ppm SEPTTR 1DP (disease control rating): 1 Day Protectant; for HV activity at 100 ppm SEPTTR 3DC (disease control rating): 3 Day Curative
[2] = tested on: Puccinia triticina; test: Wheat brown rust (PUCCRT) disease control on wheat seedlings; format: in vivo; parameters: key to PUCCRT 3DC, HV activity at 100 ppm (% control rating) / PUCCRT disease control, 3DC / PUCCRT 1DP disease control rating, HV activity / PUCCRT 3DC disease control rating, HV activity / PUCCRT 3DC, LV activity at 125.1 g/H (% Control rating) / PUCCRT 1DP, LV activity at 125.1 g/H (% Control rating) / PUCCRT 3DC disease control rating, LV activity at 125.1 g/H / PUCCRT 1DP disease control rating, LV activity at 125.1 g/H / PUCCRT 3DC disease control rating, HV activity at 100 ppm / PUCCRT 1DP disease control rating, HV activity at 100 ppm / HV activity at 100 ppm PUCCRT 3DC (disease control rating) / LV activity at 125.1 g/H PUCCRT 1DP (disease control rating) / LV activity at 125.1 g/H PUCCRT 3DC (disease control rating): A: > 80; B: ≤ 80; C: Not Tested; D: No Activity Observed in the Reported Assay; conditions: 100 ppm; for PUCCRT 1DP disease control rating, HV activity at 100 ppm / PUCCRT 3DC disease control rating, HV activity at 100 ppm: high volume application; for PUCCRT 1DP disease control rating, HV activity at 100 ppm: 1 day protectant; for PUCCRT 3DC disease control rating, HV activity at 100 ppm: 3 day curative; for HV activity at 100 ppm PUCCRT 1DP (disease control rating) / HV activity at 100 ppm PUCCRT 3DC (disease control rating): HV application, wheat brown rust; for HV activity at 100 ppm PUCCRT 1DP (disease control rating): 1 Day Protectant; for HV activity at 100 ppm PUCCRT 3DC (disease control rating): 3 Day Curative

| Structure (SMILES) | SEPTTR 1DP disease control rating, HV activity at 100 ppm [1] | SEPTTR 3DC disease control rating, HV activity at 100 ppm [1] | PUCCRT 1DP disease control rating, HV activity at 100 ppm [2] | PUCCRT 3DC disease control rating, HV activity at 100 ppm [2] | HV activity at 100 ppm SEPTTR 1DP (disease control rating) [1] | HV activity at 100 ppm SEPTTR 3DC (disease control rating) [1] | HV activity at 100 ppm PUCCRT 1DP (disease control rating) [2] | HV activity at 100 ppm PUCCRT 3DC (disease control rating) [2] |
| --- | --- | --- | --- | --- | --- | --- | --- | --- |
| COc1cccc(O[C@H](C2CC2)[C@H](C)OC(=O)[C@H](C)NC(=O)c2nccc(OC)c2O)c1 [Cmpd 1014] | B (≤ 80) | B (≤ 80) | A (> 80) | A (> 80) | – | – | – | – |
| COc1cccc(O[C@@H]([C@H](C)OC(=O)[C@H](C)NC(=O)c2nccc(OC)c2O)C(C)(C)C)c1 [Cmpd 1015] | B (≤ 80) | B (≤ 80) | A (> 80) | A (> 80) | – | – | – | – |
| COc1ccnc(C(=O)N[C@@H](C)C(=O)O[C@@H](C)[C@H](Oc2ccccc2)C2CC2)c1O [Cmpd 1016] | B (≤ 80) | B (≤ 80) | A (> 80) | A (> 80) | – | – | – | – |
| C=CC[C@@H](OCC(=C)C)[C@H](C)OC(=O)[C@H](C)NC(=O)c1nccc(OC)c1O [Cmpd 1019] | B (≤ 80) | A (> 80) | A (> 80) | A (> 80) | – | – | – | – |
| C=CC[C@@H](Oc1ccc(C(F)(F)F)cc1)[C@H](C)OC(=O)[C@H](C)NC(=O)c1nccc(OC)c1O [Cmpd 1020] | B (≤ 80) | B (≤ 80) | A (> 80) | A (> 80) | – | – | – | – |
| C=CC[C@@H](Oc1cccc(Cl)c1)[C@H](C)OC(=O)[C@H](C)NC(=O)c1nccc(OC)c1O [Cmpd 1021] | A (> 80) | A (> 80) | A (> 80) | A (> 80) | – | – | – | – |
| C=CC[C@@H](Oc1cc(F)cc(Cl)c1)[C@H](C)OC(=O)[C@H](C)NC(=O)c1nccc(OC)c1O [Cmpd 1022] | D | B (≤ 80) | B (≤ 80) | A (> 80) | – | – | – | – |
| C=CC[C@@H](Oc1ccc(F)cc1F)[C@H](C)OC(=O)[C@H](C)NC(=O)c1nccc(OC)c1O [Cmpd 1023] | D | B (≤ 80) | A (> 80) | A (> 80) | – | – | – | – |
| C=CC[C@@H](OCC1CC1)[C@H](C)OC(=O)[C@H](C)NC(=O)c1nccc(OC)c1O [Cmpd 1024] | D | B (≤ 80) | B (≤ 80) | A (> 80) | – | – | – | – |
| CC(NC(=O)c1nccc(Br)c1O)C(=O)OC(C)C(Oc1ccccc1)C(C)C (stereo not shown) [Cmpd 1025] | D | B (≤ 80) | A (> 80) | B (≤ 80) | – | – | – | – |
| COc1ccnc(C(=O)NC(C)C(=O)OC(C(C)C)C(Oc2ccccc2)C(C)C)c1O (stereo not shown) [Cmpd 1031] | – | – | – | – | B (≤ 80) | D | B (≤ 80) | D |
| C=CC(OC(=O)C(C)NC(=O)c1nccc(OC)c1O)C(Oc1ccccc1)C(C)C (stereo not shown) [Cmpd 1033] | – | – | – | – | A (> 80) | B (≤ 80) | A (> 80) | A (> 80) |
| CC(C)C[C@@H](Oc1cccc(F)c1)[C@H](C)OC(=O)[C@H](C)NC(=O)c1ncccc1O [Cmpd 1035] | – | – | – | – | B (≤ 80) | D | A (> 80) | A (> 80) |
| CC(C)C[C@@H](Oc1cc(F)ccc1F)[C@H](C)OC(=O)[C@H](C)NC(=O)c1ncccc1O [Cmpd 1036] | – | – | – | – | B (≤ 80) | D | A (> 80) | B (≤ 80) |
| CC(C)C[C@@H](Oc1cccc(Cl)c1)[C@H](C)OC(=O)[C@H](C)NC(=O)c1ncccc1O [Cmpd 1037] | – | – | – | – | A (> 80) | B (≤ 80) | A (> 80) | A (> 80) |
| Cc1ccc(O[C@H](CC(C)C)[C@H](C)OC(=O)[C@H](C)NC(=O)c2ncccc2O)c(Cl)c1 [Cmpd 1038] | – | – | – | – | D | B (≤ 80) | A (> 80) | B (≤ 80) |
| CCOc1ccnc(C(=O)N[C@@H](C)C(=O)O[C@@H](C)[C@@H](CC(C)C)Oc2cccc(F)c2)c1O [Cmpd 1039] | – | – | – | – | D | B (≤ 80) | A (> 80) | A (> 80) |
| CCOc1ccnc(C(=O)N[C@@H](C)C(=O)O[C@@H](C)[C@@H](CC(C)C)Oc2cc(F)ccc2F)c1O [Cmpd 1040] | – | – | – | – | D | D | B (≤ 80) | A (> 80) |
| COc1ccnc(C(=O)N[C@@H](C)C(=O)O[C@@H](C)[C@@H](CC(C)C)OCC(C)C)c1O [Cmpd 1044] | – | – | – | – | B (≤ 80) | A (> 80) | A (> 80) | A (> 80) |
| COc1ccnc(C(=O)N[C@@H](C)C(=O)O[C@@H](C)[C@@H](CC(C)C)OCC2CC2)c1O [Cmpd 1045] | – | – | – | – | D | B (≤ 80) | A (> 80) | A (> 80) |
| COc1ccnc(C(=O)N[C@@H](C)C(=O)O[C@@H](C)[C@@H](CC(C)C)Oc2ccc3ccccc3c2)c1O [Cmpd 1046] | – | – | – | – | D | D | A (> 80) | A (> 80) |
| COc1ccnc(C(=O)N[C@@H](C)C(=O)O[C@@H](C)[C@@H](CC(C)C)Oc2ccc(Cl)cc2)c1O [Cmpd 1047] | – | – | – | – | B (≤ 80) | A (> 80) | A (> 80) | A (> 80) |
| COc1ccnc(C(=O)N[C@@H](C)C(=O)O[C@@H](C)[C@@H](CC(C)C)Oc2cccc(F)c2)c1O [Cmpd 1048] | – | – | – | – | B (≤ 80) | A (> 80) | A (> 80) | A (> 80) |
| COc1ccnc(C(=O)N[C@@H](C)C(=O)O[C@@H](C)[C@@H](CC(C)C)Oc2cc(F)ccc2F)c1O [Cmpd 1049] | – | – | – | – | A (> 80) | B (≤ 80) | A (> 80) | A (> 80) |
| COc1ccnc(C(=O)N[C@@H](C)C(=O)O[C@@H](C)[C@@H](CC(C)C)Oc2cccc(Cl)c2)c1O [Cmpd 1050] | – | – | – | – | A (> 80) | A (> 80) | A (> 80) | A (> 80) |
